Patent US7276330B2, “Devices, systems and methods for time domain multiplexing of reagents” (Caliper Technologies Corp., priority 1999, dated 2007)

Molecular target: T1, Gq coupled P2u purinergic receptor (THP-1) (Homo sapiens, UniProt P41231)
T1 construct: human monocytic leukemia cell line that carried the Gq coupled P2u purinergic receptor (THP-1); endogenous in cells; host or cells: THP-1 (human monocytic leukemia cell line)
Assay: model calcium flux assay in THP-1 cells in a microfluidic device
Format: cell-based
Details: THP-1 cells preloaded with Fluo-3 or Fluo-4; UTP 100, 300, 1000 and 3000 nM; detection 15 seconds after exposure
Text: The device shown in FIG. 1A was used to test the dose response of a human monocytic leukemia cell line that carried the Gq coupled P2u purinergic receptor (THP-1), as a model calcium flux assay. Briefly, a phospholipase C/IP3/calcium signal transduction pathway is activated when the receptor binds to its ligand UTP. When the cells are preloaded with a calcium sensitive indicator, i.e., Fluo-3 or Fluo-4 (available from Molecular Probes, Eugene, Oreg.). The transient increase in intracellular calcium is then detected as a fluorescent signal.
In the present example, THP-1 cells were preloaded with Fluo-3 or Fluo-4, as well as a nucleic acid stain (Syto-62 from Molecular Probes). The cells were washed and resuspended in Cell Buffer (1.56 ml HBSS, 0.94 ml 33% Ficoll, 5 μl HEPES (1 M stock), 25 μl 100× PBC, 25 μl 10% BSA, and 0.546 ml OPTI-Prep (65% stock)) and added to reservoir 106. Different concentrations of UTP in Cell Buffer (100, 300, 1000 and 3000 nM, respectively) were then added to reagent reservoirs 110-116. […]
In order to monitor the stepwise increase of each UTP reagent solution, an additional marker solution, BODIPY-arginine, was added to the reagent reservoirs 110-116. […] Briefly, the slope of calcium signal (response) vs. Syto 62 signal (cell number) was calculated for each UTP concentration. […]

T1 sequence (P41231 whole entry): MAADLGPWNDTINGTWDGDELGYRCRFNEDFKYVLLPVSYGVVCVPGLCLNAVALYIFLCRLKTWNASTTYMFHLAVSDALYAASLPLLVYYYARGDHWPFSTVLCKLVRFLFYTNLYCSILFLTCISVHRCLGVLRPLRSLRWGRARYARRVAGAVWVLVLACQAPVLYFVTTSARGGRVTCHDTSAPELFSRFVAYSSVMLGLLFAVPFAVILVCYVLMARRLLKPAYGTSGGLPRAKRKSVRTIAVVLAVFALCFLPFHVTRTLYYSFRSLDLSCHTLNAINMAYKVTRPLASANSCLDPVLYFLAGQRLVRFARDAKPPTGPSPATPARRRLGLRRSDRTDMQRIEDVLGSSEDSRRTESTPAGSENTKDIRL

- calcium signal (fluorescent peaks from each cell) with stepwise addition of UTP: increase discernibly in size
SMILES: O=c1ccn([C@@H]2O[C@H](COP(=O)(O)OP(=O)(O)OP(=O)(O)O)[C@@H](O)[C@H]2O)c(=O)[nH]1 [UTP]
